Results: the NIST ThermoML archive (doi:10.1016/j.tca.2013.12.015)
Numbers after ± are expanded uncertainties.

Assay: mn = molality of the nth substance listed, in mol/kg
Details: 101 kPa, Liquid; for speed of sound: Single path-length method; for mass density: Vibrating tube method

COC(=O)CC(C)=O [methyl 3-oxobutanoate] + O
Details	mass density, 288.15 K [kg/m3]	mass density, 293.15 K [kg/m3]	mass density, 298.15 K [kg/m3]	mass density, 303.15 K [kg/m3]	mass density, 308.15 K [kg/m3]	speed of sound, 288.15 K [m/s]	speed of sound, 293.15 K [m/s]	speed of sound, 298.15 K [m/s]	speed of sound, 303.15 K [m/s]	speed of sound, 308.15 K [m/s]
m1 = 0.0809	1000.36 ± 0.41	999.43 ± 0.41	998.205 ± 0.41	996.78 ± 0.41	995.12 ± 0.41	1472.5 ± 4.2	1487.7 ± 4.2	1501.3 ± 4.2	1513.1 ± 4.2	1523.2 ± 4.2
m1 = 0.1654	1001.65 ± 0.41	1000.66 ± 0.41	999.37 ± 0.41	997.9 ± 0.41	996.2 ± 0.41	1477.3 ± 4.2	1491.9 ± 4.2	1504.8 ± 4.2	1516.1 ± 4.2	1525.7 ± 4.2
m1 = 0.285	1003.44 ± 0.41	1002.36 ± 0.41	1001 ± 0.41	999.454 ± 0.41	997.68 ± 0.41	1484.7 ± 4.2	1498.3 ± 4.2	1510.5 ± 4.2	1521 ± 4.2	1529.9 ± 4.2
m1 = 0.386	1004.9 ± 0.41	1003.75 ± 0.41	1002.33 ± 0.41	1000.73 ± 0.41	998.91 ± 0.41	1490.1 ± 4.2	1503.1 ± 4.2	1514.6 ± 4.2	1524.4 ± 4.2	1532.7 ± 4.2
m1 = 0.4607	1005.98 ± 0.42	1004.75 ± 0.41	1003.3 ± 0.41	1001.65 ± 0.41	999.79 ± 0.41	1494.2 ± 4.2	1506.6 ± 4.2	1517.6 ± 4.2	1527 ± 4.2	1534.9 ± 4.2
m1 = 0.5604	1007.37 ± 0.42	1006.06 ± 0.42	1004.56 ± 0.41	1002.85 ± 0.41	1000.94 ± 0.41	1499.6 ± 4.2	1511.4 ± 4.2	1521.7 ± 4.2	1530.5 ± 4.2	1537.9 ± 4.2
m1 = 0.6367	1008.4 ± 0.42	1007.01 ± 0.42	1005.53 ± 0.42	1003.74 ± 0.41	1001.79 ± 0.41	1503 ± 4.2	1514.2 ± 4.2	1524.1 ± 4.2	1532.5 ± 4.2	1539.5 ± 4.2
m1 = 0.7871	1010.4 ± 0.42	1008.9 ± 0.42	1007.35 ± 0.42	1005.47 ± 0.42	1003.45 ± 0.41	1509.8 ± 4.2	1520.2 ± 4.2	1529.1 ± 4.2	1536.7 ± 4.2	1542.9 ± 4.2
m1 = 0.8429	1011.13 ± 0.42	1009.58 ± 0.42	1008 ± 0.42	1006.11 ± 0.42	1004.04 ± 0.41	1512.2 ± 4.2	1522.2 ± 4.2	1530.9 ± 4.2	1538.1 ± 4.2	1544 ± 4.2

O [water] + CCCCn1cc[n+](C)c1.[Br-]
Details	mass density [kg/m3]
308.15 K, m2 = 0	994.062 ± 0.41

O [water] + COC(=O)CC(C)=O
Details	mass density [kg/m3]
308.15 K, m2 = 0	994.062 ± 0.41

O [water] + CCOC(=O)CC(C)=O
Details	mass density [kg/m3]
308.15 K, m2 = 0	994.062 ± 0.41

CCCCn1cc[n+](C)c1.[Br-] [1-butyl-3-methylimidazolium bromide] + O
Details	mass density, 288.15 K [kg/m3]	mass density, 293.15 K [kg/m3]	mass density, 298.15 K [kg/m3]	mass density, 303.15 K [kg/m3]	mass density, 308.15 K [kg/m3]	speed of sound, 288.15 K [m/s]	speed of sound, 293.15 K [m/s]	speed of sound, 298.15 K [m/s]	speed of sound, 303.15 K [m/s]	speed of sound, 308.15 K [m/s]
m1 = 0.1019	1004.34 ± 0.42	1003.53 ± 0.42	1002.16 ± 0.41	1000.83 ± 0.41	999.035 ± 0.41	1479 ± 4.2	1494.2 ± 4.2	1506.8 ± 4.2	1518.8 ± 4.2	1528.1 ± 4.2
m1 = 0.3048	1000.67 ± 0.41	999.754 ± 0.41	998.577 ± 0.41	997.164 ± 0.41	995.54 ± 0.41	1470.2 ± 4.2	1486.1 ± 4.2	1500 ± 4.2	1512.1 ± 4.2	1522.2 ± 4.2

CCOC(=O)CC(C)=O [ethyl 3-oxobutanoate] + O
Details	mass density, 288.15 K [kg/m3]	mass density, 293.15 K [kg/m3]	mass density, 298.15 K [kg/m3]	mass density, 303.15 K [kg/m3]	mass density, 308.15 K [kg/m3]	speed of sound, 288.15 K [m/s]	speed of sound, 293.15 K [m/s]	speed of sound, 298.15 K [m/s]	speed of sound, 303.15 K [m/s]	speed of sound, 308.15 K [m/s]
m1 = 0.076	1000.05 ± 0.41	999.128 ± 0.41	997.91 ± 0.41	996.474 ± 0.41	994.809 ± 0.41	1472.6 ± 4.2	1487.8 ± 4.2	1501.3 ± 4.2	1513 ± 4.2	1523.1 ± 4.2
m1 = 0.1625	1001.1 ± 0.41	1000.13 ± 0.41	998.838 ± 0.41	997.358 ± 0.41	995.64 ± 0.41	1479.2 ± 4.2	1493.6 ± 4.2	1506.4 ± 4.2	1517.4 ± 4.2	1526.9 ± 4.2
m1 = 0.2495	1002.14 ± 0.41	1001.1 ± 0.41	999.76 ± 0.41	998.22 ± 0.41	996.445 ± 0.41	1485.5 ± 4.2	1499.2 ± 4.2	1511.2 ± 4.2	1521.6 ± 4.2	1530.4 ± 4.2
m1 = 0.3767	1003.62 ± 0.41	1002.48 ± 0.41	1001.05 ± 0.41	999.44 ± 0.41	997.59 ± 0.41	1494.1 ± 4.2	1506.7 ± 4.2	1517.7 ± 4.2	1527.1 ± 4.2	1535 ± 4.2
m1 = 0.4725	1004.7 ± 0.41	1003.48 ± 0.41	1002 ± 0.41	1000.32 ± 0.41	998.41 ± 0.41	1500 ± 4.2	1511.7 ± 4.2	1522 ± 4.2	1530.8 ± 4.2	1538.1 ± 4.2
m1 = 0.5324	1005.38 ± 0.42	1004.1 ± 0.41	1002.58 ± 0.41	1000.86 ± 0.41	998.9 ± 0.41	1503.4 ± 4.2	1514.7 ± 4.2	1524.5 ± 4.2	1532.9 ± 4.2	1539.8 ± 4.2
m1 = 0.6848	1007.03 ± 0.42	1005.6 ± 0.42	1004 ± 0.41	1002.18 ± 0.41	1000.12 ± 0.41	1511.6 ± 4.2	1521.7 ± 4.2	1530.5 ± 4.2	1537.8 ± 4.2	1543.7 ± 4.2
m1 = 0.7843	1008.1 ± 0.42	1006.56 ± 0.42	1004.9 ± 0.41	1003.01 ± 0.41	1000.9 ± 0.41	1516.3 ± 4.2	1525.7 ± 4.2	1533.7 ± 4.2	1540.4 ± 4.2	1545.8 ± 4.2
m1 = 0.9019	1009.31 ± 0.42	1007.65 ± 0.42	1005.93 ± 0.42	1003.94 ± 0.41	1001.76 ± 0.41	1521.4 ± 4.2	1529.9 ± 4.2	1537.2 ± 4.2	1543.1 ± 4.2	1547.8 ± 4.2
